Several values for one entry are separate records, joined by “and”; a condition that tells them apart may be missing. Equal values may be shown once. Records with an inconclusive call do not appear.
System: nude mice, HT29 intrarenal xenograft, tumor weight T/C
Test: NCI In Vivo Anticancer Drug Screen. Data for tumor model HT29;CX-1 Human Adenocarcinoma (MER+) (intrarenal inoculation) in NU/NU Swiss (nude) mice
Details: endpoint: mean tumor weight change, higher = larger tumour
In short: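 Tumor-bearing mice received test compound or vehicle, and tumor size or survival was recorded. Values are the treated-group measurement divided by the vehicle-treated control measurement.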

[1] = dose: 300.0 mg/kg/injection, schedule: Q04DX004 (sc), vehicle: Klucel (hydroxypropylcellulose) (HPC)
[2] = dose: 600.0 mg/kg/injection, schedule: Q04DX004 (sc), vehicle: Klucel (hydroxypropylcellulose) (HPC)
[3] = dose: 150.0 mg/kg/injection, schedule: Q04DX004 (sc), vehicle: saline with Tween-80
[4] = dose: 300.0 mg/kg/injection, schedule: Q04DX004 (sc), vehicle: saline with Tween-80
[5] = dose: 600.0 mg/kg/injection, schedule: Q04DX004 (sc), vehicle: saline with Tween-80
[6] = dose: 1200.0 mg/kg/injection, schedule: Q04DX004 (sc), vehicle: saline with Tween-80
[7] = dose: 50.0 mg/kg/injection, schedule: Q01DX010 (sc), vehicle: saline
[8] = dose: 100.0 mg/kg/injection, schedule: Q01DX010 (sc), vehicle: saline
[9] = dose: 200.0 mg/kg/injection, schedule: Q01DX010 (sc), vehicle: saline

## COc1ccc(CC2C(=O)NC(C)C(=O)N(C)C3Cc4ccc(cc4)Oc4cc(ccc4O)CC(C(=O)NC(C)C(=O)NC(C)C(=O)N2C)N(C)C3=O)cc1 (stereo not drawn)
dose: 1.0 mg/kg/injection, schedule: Q04DX004 (sc), vehicle: saline with Tween-80
  T/C: 59 % of control
dose: 2.0 mg/kg/injection, schedule: Q04DX004 (sc), vehicle: saline with Tween-80
  T/C: 64 % of control
dose: 4.0 mg/kg/injection, schedule: Q04DX004 (sc), vehicle: saline with Tween-80
  T/C: 70 % of control
dose: 8.0 mg/kg/injection, schedule: Q04DX004 (sc), vehicle: saline with Tween-80
  T/C: 56 % of control and 68 % of control
dose: 16.0 mg/kg/injection, schedule: Q04DX004 (sc), vehicle: saline with Tween-80
  T/C: 70 % of control

## Cc1ccc2c(c1)C(=O)N(CC[P+](c1ccccc1)(c1ccccc1)c1ccccc1)C2=O
dose: 3.13 mg/kg/injection, schedule: Q01DX010 (sc), vehicle: Klucel (hydroxypropylcellulose) (HPC)
  T/C: 70 % of control
dose: 6.25 mg/kg/injection, schedule: Q01DX010 (sc), vehicle: Klucel (hydroxypropylcellulose) (HPC)
  T/C: 37 % of control
dose: 12.5 mg/kg/injection, schedule: Q01DX010 (sc), vehicle: Klucel (hydroxypropylcellulose) (HPC)
  T/C: 86 % of control
dose: 25.0 mg/kg/injection, schedule: Q01DX010 (sc), vehicle: Klucel (hydroxypropylcellulose) (HPC)
  T/C: 75 % of control

## O=C(O)c1cc(Cc2ccc(O)c(C(=O)O)c2)ccc1O (tested in a mixture with another compound)
[1]
  T/C: 62 % of control
[2]
  T/C: 57 % of control
dose: 1200.0 mg/kg/injection, schedule: Q04DX004 (sc), vehicle: Klucel (hydroxypropylcellulose) (HPC)
  T/C: 114 % of control
dose: 2400.0 mg/kg/injection, schedule: Q04DX004 (sc), vehicle: Klucel (hydroxypropylcellulose) (HPC)
  T/C: 104 % of control

## C[C@@]12C(=O)OC(=O)[C@]1(C)[C@H]1CC[C@@H]2O1
dose: 1.25 mg/kg/injection, schedule: Q04DX004 (sc), vehicle: Klucel (hydroxypropylcellulose) (HPC)
  T/C: 87 % of control
dose: 2.5 mg/kg/injection, schedule: Q04DX004 (sc), vehicle: Klucel (hydroxypropylcellulose) (HPC)
  T/C: 75 % of control
dose: 5.0 mg/kg/injection, schedule: Q04DX004 (sc), vehicle: Klucel (hydroxypropylcellulose) (HPC)
  T/C: 89 % of control

## O=C1c2ccccc2C(=O)c2c(NCCNCCO)ccc(O)c21
dose: 25.0 mg/kg/injection, schedule: Q04DX004 (sc), vehicle: suspension in saline
  T/C: 74 % of control
dose: 50.0 mg/kg/injection, schedule: Q04DX004 (sc), vehicle: suspension in saline
  T/C: 73 % of control
dose: 100.0 mg/kg/injection, schedule: Q04DX004 (sc), vehicle: suspension in saline
  T/C: 111 % of control

## CC(=O)NC(Cc1ccc(F)cc1)C(=O)O (stereo not drawn)
dose: 225.0 mg/kg/injection, schedule: Q04DX004 (sc), vehicle: saline with Tween-80
  T/C: 108 % of control
dose: 450.0 mg/kg/injection, schedule: Q04DX004 (sc), vehicle: saline with Tween-80
  T/C: 114 % of control
dose: 900.0 mg/kg/injection, schedule: Q04DX004 (sc), vehicle: saline with Tween-80
  T/C: 83 % of control
dose: 1800.0 mg/kg/injection, schedule: Q04DX004 (sc), vehicle: saline with Tween-80
  T/C: 106 % of control

## Cc1ccc(S(=O)(=O)NC(=O)C2C(=O)CC3(CCCCC3)CC2=O)cc1
dose: 150.0 mg/kg/injection, schedule: Q04DX004 (sc), vehicle: Klucel (hydroxypropylcellulose) (HPC)
  T/C: 80 % of control
[1]
  T/C: 84 % of control
[2]
  T/C: 58 % of control

## Nc1ccc(C(OC(=O)c2cc3ccccc3c(Cc3c(O)c(C(=O)OC(c4ccc(N)cc4)(c4ccc(N)cc4)c4ccc(N)cc4)cc4ccccc34)c2O)(c2ccc(N)cc2)c2ccc(N)cc2)cc1
dose: 36.0 mg/kg/injection, schedule: Q04DX004 (sc), vehicle: saline with Tween-80
  T/C: 118 % of control
dose: 72.0 mg/kg/injection, schedule: Q04DX004 (sc), vehicle: saline with Tween-80
  T/C: 70 % of control
dose: 144.0 mg/kg/injection, schedule: Q04DX004 (sc), vehicle: saline with Tween-80
  T/C: 68 % of control
[3]
  T/C: 94 % of control
[4]
  T/C: 55 % of control

## CC(=O)OCC1(C)NC(=O)c2ccccc2O1 (stereo not drawn)
[3]
  T/C: 78 % of control
[4]
  T/C: 79 % of control
[5]
  T/C: 100 % of control
[6]
  T/C: 52 % of control

## C[Si](C)(C)n1nnn(-c2ccccc2)c1=O
dose: 37.5 mg/kg/injection, schedule: Q04DX004 (sc), vehicle: saline with Tween-80
  T/C: 116 % of control
dose: 75.0 mg/kg/injection, schedule: Q04DX004 (sc), vehicle: saline with Tween-80
  T/C: 120 % of control
[4]
  T/C: 116 % of control

## Nc1nc(F)nc2c1ncn2C1OC(COP(=O)(O)O)C(O)C1O (stereo not drawn)
[7]
  T/C: 91 % of control
[8]
  T/C: 84 % of control
[9]
  T/C: 22 % of control

## CC(=O)C(O)N1C(=O)C=CC1=O (stereo not drawn)
dose: 2.5 mg/kg/injection, schedule: Q01DX010 (sc), vehicle: saline
  T/C: 123 % of control
dose: 5.0 mg/kg/injection, schedule: Q01DX010 (sc), vehicle: saline
  T/C: 107 % of control
dose: 10.0 mg/kg/injection, schedule: Q01DX010 (sc), vehicle: saline
  T/C: 52 % of control
dose: 20.0 mg/kg/injection, schedule: Q01DX010 (sc), vehicle: saline
  T/C: 30 % of control

## S=P(N1CC1)(N1CC1)N1CC1
dose: 1.0 mg/kg/injection, schedule: Q01DX010 (sc), vehicle: saline
  T/C: 34 % of control
dose: 2.0 mg/kg/injection, schedule: Q01DX010 (sc), vehicle: saline
  T/C: 80 % of control

## Cc1cn(C2CC3[O][Sn]([c]4ccccc4)([c]4ccccc4)[O]CC3O2)c(=O)[nH]c1=O (stereo not drawn)
dose: 25.0 mg/kg/injection, schedule: Q01DX010 (sc), vehicle: saline
  T/C: 60 % of control
[7]
  T/C: 60 % of control
[8]
  T/C: 79 % of control
[9]
  T/C: 55 % of control
dose: 600.0 mg/kg/injection, schedule: Q04DX004 (sc), vehicle: saline
  T/C: 94 % of control
dose: 1200.0 mg/kg/injection, schedule: Q04DX004 (sc), vehicle: saline
  T/C: 95 % of control
dose: 2400.0 mg/kg/injection, schedule: Q04DX004 (sc), vehicle: saline
  T/C: 94 % of control

## COc1cc(Cl)ccc1C
[4]
  T/C: 64 % of control
[5]
  T/C: 90 % of control
[6]
  T/C: 76 % of control
dose: 2400.0 mg/kg/injection, schedule: Q04DX004 (sc), vehicle: saline with Tween-80
  T/C: 84 % of control

## CC(=O)OCC1OC(n2cc(CBr)nn2)C(OC(C)=O)C(OC(C)=O)C1OC(C)=O (stereo not drawn)
dose: 200.0 mg/kg/injection, schedule: Q01DX010 (sc), vehicle: saline with Tween-80
  T/C: 79 % of control
dose: 400.0 mg/kg/injection, schedule: Q01DX010 (sc), vehicle: saline with Tween-80
  T/C: 97 % of control
dose: 800.0 mg/kg/injection, schedule: Q01DX010 (sc), vehicle: saline with Tween-80
  T/C: 70 % of control

## CC(C#N)(C#N)N=Nc1ccc(Cl)cc1Cl
dose: 200.0 mg/kg/injection, schedule: Q04DX004 (sc), vehicle: saline with Tween-80
  T/C: 116 % of control
dose: 1600.0 mg/kg/injection, schedule: Q04DX004 (sc), vehicle: saline with Tween-80
  T/C: 106 % of control

Source: PubChem BioAssay AID206 (DTP/NCI, 2004)
